Literature values as cited in patent publication US20020054921A1, “Use of phyllanthus components for the treatment or prophylaxis of infections triggered by flavivirdae” (priority 2000, published 2002).

Key:
[1] = biological target: T1, cAMP-dependent protein kinase of the rat liver (Rattus norvegicus, UniProt P27791)
T1 construct: the cAMP-dependent protein kinase of the rat liver; host or cells: rat liver

[2] = system: Ca^2+-dependent protein kinase of the wheat embryo; details: wheat embryo Ca^2+-dependent protein kinase
[3] = system: Ca^2+ and phospholipid-dependent protein kinase C (PKC) of the rat brain
[4] = system: Bacillus subtilis; details: 0.1 ml added; extract 50 mg/ml, streptomycin 10 mg/ml
[5] = system: Staphylococcus aureus; details: 0.1 ml added; extract 50 mg/ml, streptomycin 10 mg/ml

| Compound | inhibition of protein kinase [1] | inhibition of protein kinase [2] | inhibition of protein kinase [3] | inhibition zone [4] [mm] | inhibition zone [5] [mm] |
| --- | --- | --- | --- | --- | --- |
| O=C1OC2C3OC(=O)C4=CC(=O)C5(O)Oc6c(O)c(O)cc(c6C4C5(O)O)C(=O)OC2C(OC(=O)c2cc(O)c(O)c(O)c2)OC3COC(=O)c2cc(O)c(O)c3c2C2C1=CC(=O)C(O)(O3)C2(O)O (centres unmarked) [amariin] | most effective | most effective | most effective | – | – |
| [H]/N=C(/N)N[C@H]1[C@H](O)[C@@H](O)[C@H](O[C@@H]2O[C@@H](C)[C@](O)(C=O)[C@H]2O[C@@H]2O[C@@H](CO)[C@H](O)[C@@H](O)[C@@H]2NC)[C@@H](N/C(N)=N\[H])[C@@H]1O [streptomycin] | – | – | – | 35 | 35 |
| geraiin | most effective | most effective | most effective | – | – |
